Measured values published in publication PMC5059851, “Inhibition of Hedgehog-dependent tumors and cancer stem cells by a newly identified naturally occurring chemotype” (Cell Death & Disease, 2016).

Key:
murine Smo D477G = target: T1, murine Smo D477G (Mus musculus, UniProt P56726, D477G); experiment: Bodipy-Cyclopamine (BC) binding assay, HEK293T cells transfected with mouse Smo D477G
T1 construct: Flag; expressed in transfected cells; host or cells: HEK293T
Procedure: (§1) Cells were washed in PBS supplemented with 0.5% fetal bovine serum, fixed in 4% paraformaldehyde in phosphate-buffered saline (PBS) for 10 min, and incubated for 2 h at 37 °C both in the same medium supplemented with Bodipy-Cyclopamine (5 nM) and the studied compounds. The cells were permeabilized with Triton X100 (Sigma) 0.2%. Dako Fluorescent mounting (Dako, Carpinteria, CA, USA) was used as mounting medium and Hoechst reagent for staining of the cell nuclei. Bodipy (green) and Hoechst (blue) signals were analyzed in three to four representative fields per coverslip (× 20 magnification, 1000 cells/field). Data were expressed as percentage of BC incorporation observed with BC alone.[95]
(§2) BC binding (green) is visualized using fluorescence microscopy in a representative field (a). […] Quantitative data are the average BC intensity from five independent fluorescence microscopy images.

[1] = test system: murine Ptch1^+/− MB stem-like cells; experiment: MB stem cells neurosphere-forming assay; assay type: cell-based, mouse; settings: 7 days of treatment, increasing concentrations
Procedure: Figure 5 Compound 12 inhibition of Hh-dependent MB tumor cell growth. […] (a and b) After the indicated times, a trypan blue count was performed to determine the growth rate of viable cells. (c) Gli1 mRNA expression levels were determined by qRT-PCR normalized to endogenous control (β2-microglobulin and HPRT). (d–f) Compound 12 inhibits MB-SCs self-renewal. (d) Suspension of single MB-SCs isolated from Ptch1^+/− mice were cultured in stem cell medium to allow the formation of primary neurospheres. Primary neurospheres were dissociated and treated with increasing concentrations of compound 12, Cyclopamine or DMSO only. After 7 days of treatment, the number of secondary neurospheres derived from a known number of single cells was counted. The self-renewal MB-SCs' capability is expressed as percentage of neurosphere-forming cells. (e) Representative bright-field images of tumor neurospheres after compound 12 or Cyclopamine treatment are also shown. (f) MB-SCs isolated from Ptch1^+/− mice MBs were treated for 48 h with compound 12 or DMSO only. qRT-PCR analysis show Hh, proliferation and stemness target mRNA. For qRT-PCR, results were normalized to endogenous control (β2-microglobulin and HPRT). […]
Cell proliferation was evaluated by BrdU detection (Roche, Welwyn Garden City, UK). […] At least 500 nuclei were counted in triplicate, and the number of BrdU-positive nuclei was recorded. […]

ASZ001 BCC allografts = experiment: ASZ001 BCC allograft in NOD/SCID mice; assay type: in vivo, mouse; settings: 50 mg/kg s.c. every second day, versus vehicle
murine Smo WT = target: T2, murine Smo WT (Mus musculus, UniProt P56726); experiment: Bodipy-Cyclopamine (BC) binding assay, HEK293T cells transfected with mouse Smo WT
T2 construct: Flag; expressed in transfected cells; host or cells: HEK293T
Procedure: as §1, §2

[2] = test system: human medulloblastoma DAOY cells; experiment: Trypan blue growth count of DAOY cells; assay type: cell-based; settings: versus Cyclopamine, Vismodegib, LDE-225
Procedure: After the indicated times, a trypan blue count was performed to determine the growth rate. […] Results were normalized to endogenous control (β-actin and HPRT).
Cell proliferation was evaluated by BrdU detection (Roche, Welwyn Garden City, UK). Briefly, after the BrdU pulse (24 h for GCPs) cells were fixed with 4% paraformaldehyde and permeabilized with 0.2% Triton X-100, and BrdU detection was performed according to the manufacturer's instructions. Nuclei were counterstained with Hoechst reagent. At least 500 nuclei were counted in triplicate, and the number of BrdU-positive nuclei was recorded. To determine the growth rate of viable cells, a trypan blue count was performed after a treatment period of 24–48–72 h with studied compound.

[3] = BC (5 nM) displacement, transiently transfected 293T cells
[4] = HEK293T cells, various concentrations

T1 sequence (P56726 33-793 D477G): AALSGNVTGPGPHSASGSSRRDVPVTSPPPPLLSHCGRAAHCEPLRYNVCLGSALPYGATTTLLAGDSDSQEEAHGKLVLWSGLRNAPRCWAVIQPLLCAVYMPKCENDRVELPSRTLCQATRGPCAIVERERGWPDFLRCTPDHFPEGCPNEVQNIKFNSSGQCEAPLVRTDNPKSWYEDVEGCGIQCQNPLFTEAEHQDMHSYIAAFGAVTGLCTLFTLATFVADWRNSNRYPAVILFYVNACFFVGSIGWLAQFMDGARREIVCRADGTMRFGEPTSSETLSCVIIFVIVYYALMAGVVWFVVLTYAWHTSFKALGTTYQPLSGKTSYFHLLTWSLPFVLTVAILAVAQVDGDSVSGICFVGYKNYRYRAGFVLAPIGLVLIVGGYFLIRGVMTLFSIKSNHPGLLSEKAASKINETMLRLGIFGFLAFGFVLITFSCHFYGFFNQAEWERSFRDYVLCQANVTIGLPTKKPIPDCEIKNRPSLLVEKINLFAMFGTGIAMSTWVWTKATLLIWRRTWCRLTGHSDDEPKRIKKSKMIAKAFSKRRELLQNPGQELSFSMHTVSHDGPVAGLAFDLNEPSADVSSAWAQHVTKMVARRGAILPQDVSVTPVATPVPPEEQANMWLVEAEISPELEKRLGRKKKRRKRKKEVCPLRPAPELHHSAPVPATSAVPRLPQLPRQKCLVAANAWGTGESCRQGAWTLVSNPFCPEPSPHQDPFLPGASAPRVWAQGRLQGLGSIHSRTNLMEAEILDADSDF
T2 sequence (P56726 33-793): as the sequence (P56726 33-793 D477G) above, with G445D counted along it

IC50 (murine Smo D477G; [3]): 56.7 µM | inhibition of BC binding to mouse Smo D477G mutant (murine Smo D477G; [4]): significantly inhibited BC binding | Fold shift murine Smo (murine Smo D477G; IC50 Smo D477G / IC50 Smo WT): 1.243 | IC50 (murine Smo WT; [3]): 45.6 µM | inhibition of BC binding to murine Smo WT (murine Smo WT; [4]): significantly inhibited BC binding
Compound: COc1ccc(C=CC(=O)c2cc(OC)c(OC)cc2OC)cc1OC [Compound 12, 3-(3,4-dimethoxy-phenyl)-1-(2,4,5-trimethoxy-phenyl)-2-propen-1-one]
clonogenic self-renewal ability (neurosphere formation) [1]: suppressed | tumor cell growth (tumor volume) in BCC allograft (ASZ001 BCC allografts; 18 days): reduction of tumor cell growth | percentage of Ki67 labeling in allograft tumors (ASZ001 BCC allografts): decreased percentage of Ki67 labeling | inhibition of DAOY cell proliferation [2]: higher activity than other Smo antagonists
